Each compound was assayed against T1, pY705-STAT3 in PBMC (Homo sapiens, UniProt P40763) (assay: MSD-pSTAT-PBMC Assay (pSTAT3, IL-6 stimulated)). Conditions: PBMC, compound 3 hrs, then 10 ng/mL IL-6 for 10 min; Table 115; read-out: STAT3.
T1 construct: Cryopreserved Peripheral Blood Mononuclear Cells (PBMC) are from AllCells; host or cells: cryopreserved PBMC
T1 sequence (P40763 whole entry): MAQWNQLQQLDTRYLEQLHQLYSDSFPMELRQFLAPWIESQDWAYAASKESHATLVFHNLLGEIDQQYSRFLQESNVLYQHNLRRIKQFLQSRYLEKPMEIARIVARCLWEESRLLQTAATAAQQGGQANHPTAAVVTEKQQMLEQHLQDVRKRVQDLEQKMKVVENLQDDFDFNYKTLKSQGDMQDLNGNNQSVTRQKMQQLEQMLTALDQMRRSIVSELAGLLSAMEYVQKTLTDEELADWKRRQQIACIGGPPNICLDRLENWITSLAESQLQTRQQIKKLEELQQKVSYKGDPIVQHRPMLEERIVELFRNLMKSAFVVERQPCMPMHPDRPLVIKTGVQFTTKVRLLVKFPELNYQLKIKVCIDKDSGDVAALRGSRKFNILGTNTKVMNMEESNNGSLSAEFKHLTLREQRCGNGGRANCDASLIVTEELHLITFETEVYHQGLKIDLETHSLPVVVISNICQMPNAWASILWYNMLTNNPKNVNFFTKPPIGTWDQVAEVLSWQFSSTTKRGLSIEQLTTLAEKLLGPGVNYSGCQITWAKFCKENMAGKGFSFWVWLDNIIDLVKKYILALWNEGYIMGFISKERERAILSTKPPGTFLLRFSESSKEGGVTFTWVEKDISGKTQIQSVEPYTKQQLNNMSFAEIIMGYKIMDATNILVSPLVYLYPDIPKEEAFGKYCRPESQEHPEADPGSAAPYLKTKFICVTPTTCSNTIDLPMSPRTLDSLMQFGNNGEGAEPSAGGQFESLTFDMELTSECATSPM
Format: cell-based
Summary of the method: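 PBMC (human, cryopreserved, overnight recovery) + cpd 3 hrs → IL-6 10 ng/mL (STAT3) or IL-4 1 ng/mL (STAT6) ×10 min → lysis with protease/phosphatase inhibitors → MSD capture/phospho detection. IC50, variable slope, DMSO-normalized.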
With `CCCOC(=O)[C@H](C)NP(=O)(Oc1ccccc1)C(F)c1ccc2sc(C(=O)N[C@H]3CCCC[C@H]4CC[C@@H](C(=O)NCc5cnc6[nH]cnc6c5)N4C3=O)cc2c1` (stereo partly drawn) [Compound 265, propyl (((2-(((3S,6S,10aS)-3-(((3H-imidazo[4,5-b]pyridin-6-yl)methyl)carbamoyl)-5-oxodecahydropyrrolo [1,2-a]azocin-6-yl)carbamoyl)benzo [b]thiophen-5-yl)fluoromethyl) (phenoxy)phosphoryl)-L-alaninate] the IC50 was 0.1 to 1 µM. Compound `COc1ccncc1C1CN(C(=O)[C@@H]2CC[C@@H]3CCC[C@H](NC(=O)c4cc5cc([C@H](F)[P@@](=O)(N[C@@H](C)C(=O)OCc6ccccc6)Oc6ccccc6)ccc5s4)C(=O)N32)C1` (single isomer, unassigned) [Compound 1050] has an IC50 of 0.1 to 1 µM. Compound `CCOC(=O)[C@@H](NP(=O)(Cc1ccc2sc(C(=O)N[C@H]3CCC[C@H]4CC[C@@H](C(=O)N5CC(c6cccnc6)C5)N4C3=O)cc2c1)Oc1ccccc1)C(C)C` (stereo partly drawn) [Compound 949, ethyl (((2-(((3S,6S,9aS)-5-oxo-3-(3-(pyridin-3-yl)azetidine-1-carbonyl)octahydro-1H-pyrrolo[1,2-a]azepin-6-yl)carbamoyl)benzo [b]thiophen-5-yl)methyl) (phenoxy)phosphoryl)-L-valinate] has an IC50 of 1 to 3 µM. For `CCCOC(=O)[C@H](C)N[P@](=O)(Oc1ccccc1)[C@@H](F)c1ccc2sc(C(=O)N[C@H]3C[C@@H](C)C[C@H]4CC[C@@H](C(=O)N5CC(c6cnccc6OC(C)C)C5)N4C3=O)cc2c1` (single isomer, unassigned) [Compound 1034], the IC50 was under 0.1 µM. `COCCOC(=O)[C@H](C)NP(=O)(Cc1ccc2sc(C(=O)N[C@H]3CCC[C@H]4CC[C@@H](C(=O)N5CC(c6cccnc6)C5)N4C3=O)cc2c1)Oc1ccccc1` (stereo partly drawn) [Compound 393, 2-methoxyethyl (((2-(((3S,6S,9aS)-5-oxo-3-(3-(pyridin-3-yl)azetidine-1-carbonyl)octahydro-1H-pyrrolo[1,2-a]azepin-6-yl)carbamoyl)benzo [b]thiophen-5-yl)methyl)(phenoxy)phosphoryl)-L-alaninate] was tested, and the IC50 was 0.1 to 1 µM. `CCCCOC(=O)[C@H](C)NP(=O)(Cc1ccc2sc(C(=O)N[C@H]3CCC[C@H]4CC[C@@H](C(=O)N5CC(c6cccnc6)C5)N4C3=O)cc2c1)Oc1ccccc1` (stereo partly drawn) [Compound 279, butyl (((2-(((3S,6S,9aS)-5-oxo-3-(3-(pyridin-3-yl)azetidine-1-carbonyl)octahydro-1H-pyrrolo[1,2-a]azepin-6-yl)carbamoyl)benzo [b]thiophen-5-yl)methyl)(phenoxy)phosphoryl)-L-alaninate] showed an IC50 of under 0.1 µM. Work on `CC(C)COC(=O)[C@H](C)NP(=O)(Oc1ccccc1)C(F)c1ccc2sc(C(=O)N[C@H]3CCC[C@H]4CC[C@@H](C(=O)N5CC(c6cnccc6F)C5)N4C3=O)cc2c1` (stereo partly drawn) [Compound 277, isobutyl ((fluoro(2-(((3S,6S,9aS)-3-(3-(4-fluoropyridin-3-yl)azetidine-1-carbonyl)-5-oxooctahydro-1H-pyrrolo[1,2-a]azepin-6-yl)carbamoyl)benzo [b]thiophen-5-yl)methyl)(phenoxy)phosphoryl)-L-alaninate] yielded an IC50 of under 0.1 µM. For `CCCOC(=O)[C@H](C)NP(=O)(Cc1ccc2sc(C(=O)N[C@H]3CCC[C@H]4CC[C@@H](C(=O)N5CC(c6cn(C)ccc6=O)C5)N4C3=O)cc2c1)Oc1ccccc1` (stereo partly drawn) [Compound 979, propyl (((2-(((3S,6S,9aS)-3-(3-(1-methyl-4-oxo-1,4-dihydropyridin-3-yl)azetidine-1-carbonyl)-5-oxooctahydro-1H-pyrrolo[1,2-a]azepin-6-yl)carbamoyl)benzo [b]thiophen-5-yl)methyl)(phenoxy)phosphoryl)-L-alaninate], the IC50 was over 3 µM.
